In patent US9029419B2, “Use of zinc N-acetyltaurinate” (TRI-INOV, priority 2008, dated 2015):
Where two headings read alike, the source gives them in different places.

Assays:
lipofuscin accumulation = assay: Intracellular accumulation of lipofuscin in retina, prostate and hippocampus of aged rats (fluorescence image analysis); type: in vivo, Sprague-Dawley albino rats; conditions: 40 mg/kg per os once a day for 4 weeks, vs control animals (carrier)
Procedure: The activity of ATA-Zn on aging was measured by determining the amount of lipofuscin in certain tissues in aged rats (retina, prostate and hippocampus).
Male Sprague-Dawley albino rats, aged 16 months, were placed in standard plastic cages, in groups of 5, with water and food ad libitum. The living conditions of the animals were the following: day:night light cycle, 12:12 h, constant temperature of 22±2° C. and relative humidity of 60%.
For the chronic treatment, ATA-Zn was administered to the rats, per os, once a day, for 4 weeks, at the dose of 40 mg/kg (n=6). The control animals received only water (carrier) for the same period of time (n=6). 24 hours after the end of the treatment, the rats were anesthetized with equithesin ([…], i.p.) and perfused transcardially with 1% paraformaldehyde and 1.25% glutaraldehyde in a 0.1% sodium cacodylate buffer (pH 7.4) obtained from arsenous anhydride and potassium acetate.
The samples of the tissues taken (retina, prostate and hippocampus) were then cut into small pieces (1 mm^3) on a cryostat and added to a mixture of formaldehyde and glutaraldehyde in a cacodylate buffer for 2 hours. The samples were then mixed with osmium tetroxide, dehydrated in increasing concentrations of acetone and toluene and, finally, embedded into blocks of resin (EPON resin). The pieces of tissues thus processed were examined under an Olympus BX-60 fluorescence microscope.
The fluorescence in all the tissues was quantified using an image analysis system (KS 300; Karl Zeiss). The analysis was carried out by measuring the percentage surface area hidden by the presence of fluorescence and compared with a standard zone of 2000 μm^2 (lipofuscin fluorescence expressed as % surface area relative to the standard zone) using an ×40 objective magnification and a Zeiss Sound Vision digital microscope video camera (total enlargement on the computer screen ×7500). The values measured in the areas with no fluorescence in the pieces of tissues were subtracted, as background noise, from the resulting binary image. […]

ARPE-19 cells [1] = assay: Assay 1: effective doses of ATA-Zn and its toxicity, ATP production (ATPLite-M); type: cell-based, human; conditions: 24 hours after addition
Procedure: (§1) In the assays hereinafter described, the ARPE-19 human retinal pigmented epithelial cell line was used.
(§2) ARPE-19 cells grown in an appropriate medium [mixture of DMEM [Dulbecco's modified Eagle's medium) and Ham's F12 medium] containing 10% of heat-inactivated fetal calf serum; 2 mM glutamine; 0.1 mM of minimum essential medium; a solution of non-essential amino acids and gentamicin sulfate, in 96-well microplates, were exposed to various concentrations of an aqueous hydrogen peroxide solution (H2O2) being toxic for these cells. The cellular levels of ATP were measured using the commercially available assay which measures ATP production, “ATPLite-M”, manufactured by Perkin Elmer, using a multiplate reader from Perkin Elmer Life Sciences, Boston, Mass. […]
The ARPE-19 cells were treated with various concentrations of ATA-Zn (10^−3 to 10^−9 M) dissolved in a carrier consisting of a serum-free culture medium containing 0.01% of DMSO (concentration known not to affect cell viability). The ATP production by the ARPE-19 cells thus treated was determined 24 hours after the addition of ATA-Zn. The ATP production by control cells treated only with the serum-free culture medium containing 0.01% of DMSO (carrier) was also determined.

ARPE-19 cells [2] = assay: Assay 2: anti-oxidative stress cytoprotective effect, ATP production after H2O2; type: cell-based, human; conditions: 1.5 hours before H2O2 700 μm
Procedure: as §1
(§3) In order to assess the protective role of ATA-Zn with respect to an oxidative stress of the retinal epithelium, the following experimental model was used.
(§4) ARPE-19 cells grown in an appropriate medium [mixture of DMEM [Dulbecco's modified Eagle's medium) and Ham's F12 medium] containing 10% of heat-inactivated fetal calf serum; 2 mM glutamine; 0.1 mM of minimum essential medium; a solution of non-essential amino acids and gentamicin sulfate, in 96-well microplates, were exposed to various concentrations of an aqueous hydrogen peroxide solution (H2O2) being toxic for these cells. The cellular levels of ATP were measured using the commercially available assay which measures ATP production, “ATPLite-M”, manufactured by Perkin Elmer, using a multiplate reader from Perkin Elmer Life Sciences, Boston, Mass. This assay is based on the principle that ATP production is dependent on cell viability and that a decrease or increase in ATP reflects a corresponding alteration in cell viability.
(§5) The protective effect of ATA-Zn was assayed by treating the ARPE-19 cells with ATA-Zn and subsequently exposing them to the aqueous hydrogen peroxide solution. Various exposure times and various doses were used. Comparative assays were also carried out. The results of these assays are reported in FIGS. 5 to 9, which are graphs showing the ATP production, expressed as a percentage relative to the ATP production by control cells (having received only the carrier) as a function of the concentrations of H2O2, of ATA-Zn or of the comparative substances.
In this assay, the concentrations of ATA-Zn which induce a significant ATP production via the ARPE-19 cells were used, and then, after 1.5 hours, the cells were subjected to a treatment with H2O2 at the toxic dose of 700 μm.

ARPE-19 cells [3] = assay: Assay 3: cytoprotective effect of ATA-Zn on cells subjected to various concentrations of H2O2; type: cell-based, human; conditions: 10^−8 M, one and a half hours before exposure to H2O2
Procedure: as §1, §3, §2
as §5, with “Various exposure times and various doses were used. Comparative assays were also carried out.” left out, “substances. […]” for “substances.”

ARPE-19 cells [4] = assay: Comparative assay No. 2: cytoprotective effect in oxidizing medium (H2O2); type: cell-based, human; conditions: for protection against oxidative stress (ATP production): then H2O2 700 μM for 24 hours; for effect on the production of ATP by ARPE-19 cells treated and then exposed to H2O2: summary statement
Procedure: The cells were then subjected, for 24 hours, to treatment with aqueous hydrogen peroxide solution at 700 μM.

ARPE-19 cells [5] = assay: Comparative assay No. 3: comparison with the known antioxidants DHA, lutein and zeaxanthin; type: cell-based, human
Procedure: as §1, §4
as §5, with “Various exposure times and various doses were used. Comparative assays were also carried out.” left out, “substances. […]” for “substances.”

[6] = Solubility of the prepared product; type: physicochemical; conditions: white powder
ARPE-19 cells [7] = assay: Comparative assay No. 1: effective doses of taurine and ZnSO4, ARPE-19 cell proliferation; type: cell-based, human
Procedure: as §1, §4
In this assay, the effect of taurine or of N-acetylated taurine and of zinc sulfate on ARPE-19 cell proliferation was compared.

| Compound | lipofuscin fluorescence (% surface area) in the hippocampus (lipofuscin accumulation) | lipofuscin fluorescence (% surface area) in the prostate (lipofuscin accumulation) | lipofuscin fluorescence (% surface area) in the retina (lipofuscin accumulation) | ATP production / cell viability (toxicity) (ARPE-19 cells [1]; 10^−3 M) | ATP production / cell viability (ARPE-19 cells [1]; 10^−9 M, 10^−8 M and 10^−7 M) | protection against oxidative stress (ATP production) (ARPE-19 cells [2]; 10^−7 M) | protection against oxidative stress (ATP production) (ARPE-19 cells [2]; 10^−8 M) | protection against oxidative stress (ATP production) (ARPE-19 cells [2]; 10^−9 M) | protection against oxidative stress induced by various concentrations of H2O2 (ATP production) (ARPE-19 cells [3]) | protection against oxidative stress (ATP production) (ARPE-19 cells [4]; pretreatment) | effect on the production of ATP by ARPE-19 cells treated and then exposed to H2O2 (ARPE-19 cells [4]) | effect on ATP production compared with DHA, lutein and zeaxanthin (ARPE-19 cells [5]) | effect on ATP production compared with DHA, lutein and zeaxanthin (ARPE-19 cells [5]; listed as zinc N-acetyltaurinate) | solubility in ethanol [6] | solubility in water [6] | proliferative effect on the ARPE-19 cells (ARPE-19 cells [7]; 2 mM and 10^−8 M) | proliferative effect on the ARPE-19 cells (ARPE-19 cells [7]; 30 μM and 10^−8 M) | protection against oxidative stress (ATP production) (ARPE-19 cells [4]; 30 μM pretreatment) | protection against oxidative stress (ATP production) (ARPE-19 cells [4]; 10^−8 M pretreatment) |
| --- | --- | --- | --- | --- | --- | --- | --- | --- | --- | --- | --- | --- | --- | --- | --- | --- | --- | --- | --- |
| zinc N-acetyltaurinate [ATA-Zn] | significant reduction | significant reduction | significant reduction | toxic | capable of inducing an increase in cell viability | potentiates the toxic effect of H2O2 | capable of protecting the cells against oxidative stress | not effective | capable of protecting the ARPE-19 cells against oxidative stress | protect the ARPE-19 cells against oxidative stress | has an effect | effect comparable to the known antioxidants | virtually identical to or even greater than | poorly soluble in ethanol | soluble in water |  |  |  |  |
| NCCS(=O)(=O)O [taurine] |  |  |  |  |  |  |  |  |  | not capable of protecting the cells | no effect |  |  |  |  | neither zinc sulfate nor taurine at the various concentrations used were capable of inducing a significant proliferative effect |  |  |  |
| O=S(=O)([O-])[O-].[Zn+2] [zinc sulfate] |  |  |  |  |  |  |  |  |  |  | no effect |  |  |  |  |  | neither zinc sulfate nor taurine at the various concentrations used were capable of inducing a significant proliferative effect | not capable of protecting the cells | protective effect which is less than that of ATA-Zn |
